Laboratory results: patent US20150051192A1, “BLOCKING OF CUE-INDUCED DRUG REINSTATEMENT” (ALBANY MEDICAL COLLEGE, priority 2012, published 2015)
Entries after “also recorded” stand apart in the source; their conditions may differ. Like-named read-outs stand apart in the source and are kept apart here.

Columns and labels:
rats [1] = conditions: cited from earlier work
[2] = in vivo, cited from earlier work
[3] = system: female Sprague-Dawley rats; test: Musical cue-induced reinstatement of cocaine seeking (Experiment 3); type: in vivo, rat; conditions: 18-MC 40 mg/kg i.p. 20 minutes prior to reinstatement test session, vs saline
Description: Naïve female Sprague-Dawley rats (Taconic Germantown, N.Y.), weighing approximately 250 g at the start of the experiments, were housed individually in a temperature and humidity controlled colony room under a standard 12:12 light/dark cycle. Food and water were provided ad libitum. Protocols were designed and implemented in accordance with the “Guide for the Care and Use of Laboratory Animals” (1996) and were approved by the Institutional Animal Care and Use Committee of Albany Medical College. Rats were given one week of acclimation prior to experimental procedures.
Cocaine hydrochloride (˜0.4 mg/kg/infusion, Sigma-Aldrich, St. Louis, Mo.) was dissolved in 0.9% sodium chloride with a 2 mg/ml drug to saline ratio, and then brought to a neutral physiological pH before use in intravenous (i.v.) self-administration sessions. 18-MC (40 mg/kg, Obiter Research LLC. Champaign, Ill.) and saline were both administered intraperitoneally (i.p.). Animals were anesthetized with sodium pentobarbital (50 mg/kg, i.p.) for both intrajugular and microdialysis cannulation surgeries. Sodium methohexital (10 mg/kg) was used to verify catheter patency. All other reagents used in conjunction with microdialysis experiments were obtained from local suppliers and were of analytical grade.
Miles Davis' “Four” (Prestige Blue Haze, 1954) was the musical track used as a contextual cue in these experiments. The Miles Davis selection was chosen because it had been used successfully in past conditioning paradigms in our laboratory (Polston et al, 2011b). This musical selection was originally chosen because it has a repetitive beat and melody, helping to make it easily recognizable and identifiable. During drug training, self-administration, and applicable test sessions, “Four” was played on a continuous loop, at a volume staying between 65 and 75 decibels. This decibel range was chosen because it had been used successfully in past investigations involving rats and music (Feduccia et al, 2008; Otsuka et al, 2009; Polston et al, 2011b).
Experiments were conducted in rat operant conditioning chambers (ENV-009, Med Associates, St. Albans, Vt.) located within sound attenuated boxes outfitted with acoustical foam. The operant boxes were continuously ventilated with a house fan, and equipped with two retractable levers spaced approximately 20 cm apart on the front wall, with a house light mounted on the back wall of the test chamber. […] By operationally defining the floor (30.5 cm×31.8 cm) of the test chamber, and dividing it into three spatial zones, the program automatically generated detailed readings of the time spent in each zone in seconds and the distance that the animal traveled in meters. […] Videos were also periodically recorded and analyzed to ensure that Anymaze was functioning correctly. […]

rats [4] = conditions: compared to saline treated rats; cited from earlier work
study animals [5] = conditions: cited from earlier work
study animals [6] = conditions: cited from earlier work; remark: listed apart in the source

COCC[C@H]1CC2CN3CCc4c([nH]c5ccccc45)[C@](C(=O)OC)(C2)[C@H]13 [18-MC, 18-Methoxycoronaridine]
nicotine, cocaine, morphine, methamphetamine, and ethanol self-administration (rats [1]): reduce
acquisition of a cocaine conditioned place preference [2]: able to block the acquisition
acquisition of a cocaine conditioned place preference ([2]; listed as 18MC): block acquisition
time spent in the inactive or back zones, reinstatement test session ([3]; inactive p=0.488, back p=0.082): no effect of Treatment
active lever responses on the reinstatement test day ([3]; musical cue, p<0.001): significantly fewer active lever responses; also recorded: significantly attenuated responses
time spent in the active zone, reinstatement test session ([3]; p<0.01): significant decrease; also recorded: significantly decreased
locomotor activity on the reinstatement test day ([3]; p=0.143): no significant differences between groups; also recorded: produced no changes in locomotor activity
locomotor effects alone (rats [4]): produces no locomotor effects alone
sensitized dopamine responses in the nucleus accumbens (study animals [5]; local administration into both the medial habenula and the interpeduncular nucleus): produced similar results
sensitized dopamine responses to both morphine and cocaine in the nucleus accumbens (study animals [5]; systemic 18-MC 40 mg/kg pretreatment 19 hours beforehand, chronic dosing models): abolished
effect on drug self-administration (study animals [6]; 10 μg administered into the interpeduncular nucleus): effective
effect on drug self-administration (study animals [6]; 10 μg administered into the ventral tegmental area): no effect
morphine, methamphetamine, and nicotine self-administration (study animals [6]; locally administered into the medial habenula): decreased
